Test results published in US7927820B2 (priority 2004, dated 2011).
Like-named read-outs stand apart in the source and are kept apart here. Bridges are numbered along the chain shown (N, C = ends). Where no end group is shown, it is not given here.

Assays:
[1] = target: P/Q-type calcium channels (Homo sapiens, UniProt O00555); conditions: cited from earlier work
[2] = target: N-type calcium channels in cell membranes isolated from rat brain (Rattus norvegicus, UniProt Q02294); format: binding
N-type calcium channels = N-type calcium channels (Homo sapiens, UniProt Q00975); conditions: cited from earlier work

Sequence of N-type calcium channels in cell membranes isolated from rat brain (Q02294 whole entry, looked up): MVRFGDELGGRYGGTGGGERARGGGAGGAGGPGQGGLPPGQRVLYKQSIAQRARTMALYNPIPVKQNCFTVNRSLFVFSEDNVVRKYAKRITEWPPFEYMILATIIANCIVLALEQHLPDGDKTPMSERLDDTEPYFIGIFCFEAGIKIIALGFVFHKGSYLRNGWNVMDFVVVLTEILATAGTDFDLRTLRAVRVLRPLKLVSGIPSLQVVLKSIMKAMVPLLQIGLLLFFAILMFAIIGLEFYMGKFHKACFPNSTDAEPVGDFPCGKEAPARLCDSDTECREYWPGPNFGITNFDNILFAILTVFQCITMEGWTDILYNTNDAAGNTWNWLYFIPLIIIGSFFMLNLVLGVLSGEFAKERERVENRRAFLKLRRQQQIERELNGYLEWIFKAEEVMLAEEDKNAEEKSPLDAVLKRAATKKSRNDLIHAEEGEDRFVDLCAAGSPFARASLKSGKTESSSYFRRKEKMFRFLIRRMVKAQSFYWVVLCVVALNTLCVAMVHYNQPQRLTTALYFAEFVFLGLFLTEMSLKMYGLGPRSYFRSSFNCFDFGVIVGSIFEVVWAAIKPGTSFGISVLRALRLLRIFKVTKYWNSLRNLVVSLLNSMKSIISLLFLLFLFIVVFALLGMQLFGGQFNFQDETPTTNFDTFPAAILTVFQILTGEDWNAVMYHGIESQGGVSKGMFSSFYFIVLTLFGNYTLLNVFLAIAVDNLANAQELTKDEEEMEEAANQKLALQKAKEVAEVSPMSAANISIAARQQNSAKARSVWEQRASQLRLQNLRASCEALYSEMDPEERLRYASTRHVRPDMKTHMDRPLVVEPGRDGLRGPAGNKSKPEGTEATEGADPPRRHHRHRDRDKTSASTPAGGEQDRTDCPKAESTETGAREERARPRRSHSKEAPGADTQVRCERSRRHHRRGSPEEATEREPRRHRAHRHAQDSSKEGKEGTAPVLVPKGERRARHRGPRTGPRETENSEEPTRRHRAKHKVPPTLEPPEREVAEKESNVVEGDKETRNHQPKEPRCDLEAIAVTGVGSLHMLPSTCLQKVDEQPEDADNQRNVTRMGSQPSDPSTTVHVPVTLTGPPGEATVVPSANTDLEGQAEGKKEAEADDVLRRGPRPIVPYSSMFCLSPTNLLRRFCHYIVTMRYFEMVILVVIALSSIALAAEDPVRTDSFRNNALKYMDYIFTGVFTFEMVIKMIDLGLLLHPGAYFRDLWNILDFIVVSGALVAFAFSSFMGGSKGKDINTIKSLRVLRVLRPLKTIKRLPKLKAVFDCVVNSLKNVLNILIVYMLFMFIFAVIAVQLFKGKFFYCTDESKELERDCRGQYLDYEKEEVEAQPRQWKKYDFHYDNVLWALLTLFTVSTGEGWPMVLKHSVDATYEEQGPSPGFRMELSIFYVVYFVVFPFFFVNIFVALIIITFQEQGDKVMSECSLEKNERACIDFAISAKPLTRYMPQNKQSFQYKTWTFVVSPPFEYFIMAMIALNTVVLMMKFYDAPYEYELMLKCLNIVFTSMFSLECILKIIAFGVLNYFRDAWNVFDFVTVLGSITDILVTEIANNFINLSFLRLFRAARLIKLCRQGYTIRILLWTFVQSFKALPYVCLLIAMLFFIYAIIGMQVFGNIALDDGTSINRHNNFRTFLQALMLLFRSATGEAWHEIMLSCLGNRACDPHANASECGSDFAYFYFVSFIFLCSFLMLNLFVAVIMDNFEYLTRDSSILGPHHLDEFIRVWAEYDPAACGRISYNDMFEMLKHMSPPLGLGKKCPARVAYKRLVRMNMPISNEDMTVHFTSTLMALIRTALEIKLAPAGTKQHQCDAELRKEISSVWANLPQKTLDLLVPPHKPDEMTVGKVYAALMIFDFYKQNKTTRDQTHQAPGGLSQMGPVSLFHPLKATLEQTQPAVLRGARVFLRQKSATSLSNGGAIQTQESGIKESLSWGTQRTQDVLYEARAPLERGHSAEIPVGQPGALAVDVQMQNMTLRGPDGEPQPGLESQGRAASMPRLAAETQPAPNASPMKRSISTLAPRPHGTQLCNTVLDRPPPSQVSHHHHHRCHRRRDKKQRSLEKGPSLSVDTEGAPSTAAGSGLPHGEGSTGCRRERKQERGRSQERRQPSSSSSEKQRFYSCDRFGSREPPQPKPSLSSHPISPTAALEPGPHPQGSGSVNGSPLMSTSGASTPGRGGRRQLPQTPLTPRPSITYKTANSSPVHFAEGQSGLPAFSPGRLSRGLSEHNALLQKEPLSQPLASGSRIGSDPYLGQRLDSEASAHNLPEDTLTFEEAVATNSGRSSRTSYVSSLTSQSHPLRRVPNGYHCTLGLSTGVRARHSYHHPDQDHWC
Sequence of P/Q-type calcium channels (O00555 whole entry, looked up): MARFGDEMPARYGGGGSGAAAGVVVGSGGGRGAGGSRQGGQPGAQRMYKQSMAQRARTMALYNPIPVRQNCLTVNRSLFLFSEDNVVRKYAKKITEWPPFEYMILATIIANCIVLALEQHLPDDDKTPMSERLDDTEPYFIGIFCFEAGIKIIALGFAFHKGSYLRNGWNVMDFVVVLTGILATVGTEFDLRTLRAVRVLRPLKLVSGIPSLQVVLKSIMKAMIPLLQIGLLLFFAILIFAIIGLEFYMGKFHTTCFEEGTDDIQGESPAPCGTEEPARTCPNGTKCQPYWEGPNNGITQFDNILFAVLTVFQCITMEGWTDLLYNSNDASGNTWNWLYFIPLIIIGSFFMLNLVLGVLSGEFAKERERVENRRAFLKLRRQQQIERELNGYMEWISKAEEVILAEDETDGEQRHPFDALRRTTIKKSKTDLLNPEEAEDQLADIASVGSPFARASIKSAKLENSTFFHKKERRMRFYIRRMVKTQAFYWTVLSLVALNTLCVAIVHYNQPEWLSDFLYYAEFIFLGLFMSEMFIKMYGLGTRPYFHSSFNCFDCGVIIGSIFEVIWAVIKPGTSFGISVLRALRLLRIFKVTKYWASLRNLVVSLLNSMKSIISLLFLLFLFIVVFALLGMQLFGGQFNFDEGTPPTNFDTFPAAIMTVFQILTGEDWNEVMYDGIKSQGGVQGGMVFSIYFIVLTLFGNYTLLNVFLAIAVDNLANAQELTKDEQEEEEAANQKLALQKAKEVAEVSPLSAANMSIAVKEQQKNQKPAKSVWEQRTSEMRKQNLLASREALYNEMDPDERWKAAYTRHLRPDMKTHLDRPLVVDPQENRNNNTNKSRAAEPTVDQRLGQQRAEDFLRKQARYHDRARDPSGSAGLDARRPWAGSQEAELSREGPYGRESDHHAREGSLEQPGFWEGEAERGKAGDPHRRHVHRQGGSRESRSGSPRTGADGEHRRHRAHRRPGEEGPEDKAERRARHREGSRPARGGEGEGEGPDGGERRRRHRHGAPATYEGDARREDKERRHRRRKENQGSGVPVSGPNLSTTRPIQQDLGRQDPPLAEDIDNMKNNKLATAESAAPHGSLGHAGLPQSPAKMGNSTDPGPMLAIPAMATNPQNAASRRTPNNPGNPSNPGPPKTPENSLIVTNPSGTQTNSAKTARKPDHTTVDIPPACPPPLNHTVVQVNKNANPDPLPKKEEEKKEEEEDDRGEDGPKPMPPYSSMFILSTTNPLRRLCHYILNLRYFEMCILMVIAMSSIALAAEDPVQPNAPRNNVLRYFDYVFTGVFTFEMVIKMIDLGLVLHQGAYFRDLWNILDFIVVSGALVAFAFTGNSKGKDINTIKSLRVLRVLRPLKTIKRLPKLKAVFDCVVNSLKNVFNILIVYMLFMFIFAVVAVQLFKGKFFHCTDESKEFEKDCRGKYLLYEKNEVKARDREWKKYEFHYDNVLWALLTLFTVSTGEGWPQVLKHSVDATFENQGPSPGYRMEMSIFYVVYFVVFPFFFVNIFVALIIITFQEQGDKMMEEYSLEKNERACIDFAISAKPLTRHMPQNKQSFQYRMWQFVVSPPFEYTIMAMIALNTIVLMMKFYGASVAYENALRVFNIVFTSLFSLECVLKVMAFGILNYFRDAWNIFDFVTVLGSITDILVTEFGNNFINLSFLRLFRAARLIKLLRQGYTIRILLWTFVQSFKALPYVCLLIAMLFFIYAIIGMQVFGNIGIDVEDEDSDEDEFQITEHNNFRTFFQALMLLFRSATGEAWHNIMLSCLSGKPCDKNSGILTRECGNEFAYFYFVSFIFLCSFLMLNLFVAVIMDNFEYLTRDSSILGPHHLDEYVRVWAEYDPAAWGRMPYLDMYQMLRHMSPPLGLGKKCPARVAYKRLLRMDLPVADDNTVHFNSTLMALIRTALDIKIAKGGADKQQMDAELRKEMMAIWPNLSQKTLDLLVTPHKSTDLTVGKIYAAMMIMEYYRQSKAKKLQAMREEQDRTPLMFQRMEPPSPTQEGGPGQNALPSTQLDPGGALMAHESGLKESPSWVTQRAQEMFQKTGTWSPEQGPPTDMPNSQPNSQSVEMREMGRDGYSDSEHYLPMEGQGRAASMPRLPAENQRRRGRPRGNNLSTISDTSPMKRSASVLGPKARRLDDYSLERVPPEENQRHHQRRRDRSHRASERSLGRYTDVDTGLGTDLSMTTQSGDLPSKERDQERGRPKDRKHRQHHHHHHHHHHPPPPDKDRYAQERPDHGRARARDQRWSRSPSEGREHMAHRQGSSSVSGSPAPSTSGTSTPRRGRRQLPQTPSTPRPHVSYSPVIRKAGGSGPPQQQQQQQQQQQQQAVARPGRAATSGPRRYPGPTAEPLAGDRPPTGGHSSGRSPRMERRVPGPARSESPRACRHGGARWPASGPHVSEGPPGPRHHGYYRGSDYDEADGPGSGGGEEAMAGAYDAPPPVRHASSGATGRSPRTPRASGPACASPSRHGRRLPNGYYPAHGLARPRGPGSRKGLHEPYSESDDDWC

KKKCIAKDYGRCKWGGTPCCRGRGCICSIMGTNCECKPRLIMEGLGLA (disulfide 4-20, 12-25, 19-36, 27-34 (inferred)) [ω-Agatoxin, ω-Agatoxin IVA]
P/Q-type calcium channel inhibition or binding (description) ([1]; literature): has been shown to bind
relative binding affinity (order of displacement of [125I]GVIA binding) [2]: lowest relative binding affinity

ω-conotoxin GVIA
N-type calcium channel block (description) (N-type calcium channels): potent and selective blocker
relative binding affinity (order of displacement of [125I]GVIA binding) [2]: highest relative binding affinity

ω-conotoxin MVIIC
N-type calcium channel block (description) (N-type calcium channels): weak inhibitor
P/Q-type calcium channel inhibition or binding (description) [1]: potent inhibitor
